{
  "source": "paper PMC2594009",
  "about": "(Structure (London, England : 1993), 2008)",
  "key": {"[1]": {"test_system": "WT AM2", "type": "cell-based, influenza A virus", "settings": "pH 5.5"}, "[2]": {"test_system": "M2", "settings": "cited from earlier work"}},
  "note": "Entries after “also recorded” stand apart in the source; their conditions may differ.",
  "data": [
    {"smiles": "NC12CC3CC(CC(C3)C1)C2", "note": "[amantadine]", "values": [
      {"measurement": "reversibility of inhibition after removal of the drug", "setting": "[1]", "value": "did not reverse; also recorded: not reversible"},
      {"measurement": "Hill coefficient", "setting": "[2]", "value": 1.0}
    ]}
  ]
}
